Read-outs that look alike come from different tables or passages of the source.
Key:
GSK3α = GSK3α (Homo sapiens (Human), UniProt P49840); assay: GSK 3α enzyme inhibition (Z-LYTE FRET, Method 2); type: biochemical
Method: (§1) The enzyme inhibitory activities of compounds disclosed herein are determined by FRET using synthetic peptides labelled with both donor and acceptor fluorophores (Z-LYTE, Invitrogen Ltd., Paisley, UK).
The inhibitory activities of compounds of the invention against the GSK 3α enzyme isoform (Invitrogen), are evaluated by determining the level of activation/phosphorylation of the target peptide. The GSK3-α protein (500 ng/mL, 2.5 μL) is mixed with the test compound (2.5 μL at either 4 μg/mL, 0.4 μg/mL, 0.04 μg/mL, or 0.004 μg/mL) for 2 hr at RT. The FRET peptide (8 μM, 2.5 μL), which is a phosphorylation target for GSK3α, and ATP (40 μM, 2.5 μL) are then added to the enzyme/compound mixture and the resulting mixture incubated for 1 hr. Development reagent (protease, 5 μL) is added for 1 hr prior to detection in a fluorescence microplate reader (Varioskan® Flash, ThermoFisher Scientific).
(§2) In all cases, the site-specific protease cleaves non-phosphorylated peptide only and eliminates the FRET signal. Phosphorylation levels of each reaction are calculated using the ratio of coumarin emission (donor) over fluorescein emission (acceptor), for which high ratios indicate high phosphorylation and low ratios indicate low phosphorylation levels.

PBMCs [1] = assay: IL-2 and IFN gamma release in CD3/CD28 stimulated PBMC cells; type: cell-based; conditions: Homo sapiens
Method: PBMCs from healthy subjects are separated from whole blood using a density gradient (Lymphoprep, Axis-Shield Healthcare). Cells are added to a 96 well plate pre-coated with a mixture of CD3/CD38 monoclonal antibodies (0.3 μg/mL eBioscience and 3 μg/mL BD Pharmingen respectively). Compound at the desired concentration is then added to the wells and the plate left for 3 days under normal tissue culture conditions. Supernatants are harvested and IL-2 and IFN gamma release determined by Sandwich ELISA (Duo-set, R&D System). The IC50 is determined from the dose response curve.

c-Src = c-Src (Homo sapiens (Human), UniProt P12931); assay: c-Src enzyme inhibition (Z-LYTE FRET); type: biochemical
c-Src, sequence (P12931 whole entry, looked up): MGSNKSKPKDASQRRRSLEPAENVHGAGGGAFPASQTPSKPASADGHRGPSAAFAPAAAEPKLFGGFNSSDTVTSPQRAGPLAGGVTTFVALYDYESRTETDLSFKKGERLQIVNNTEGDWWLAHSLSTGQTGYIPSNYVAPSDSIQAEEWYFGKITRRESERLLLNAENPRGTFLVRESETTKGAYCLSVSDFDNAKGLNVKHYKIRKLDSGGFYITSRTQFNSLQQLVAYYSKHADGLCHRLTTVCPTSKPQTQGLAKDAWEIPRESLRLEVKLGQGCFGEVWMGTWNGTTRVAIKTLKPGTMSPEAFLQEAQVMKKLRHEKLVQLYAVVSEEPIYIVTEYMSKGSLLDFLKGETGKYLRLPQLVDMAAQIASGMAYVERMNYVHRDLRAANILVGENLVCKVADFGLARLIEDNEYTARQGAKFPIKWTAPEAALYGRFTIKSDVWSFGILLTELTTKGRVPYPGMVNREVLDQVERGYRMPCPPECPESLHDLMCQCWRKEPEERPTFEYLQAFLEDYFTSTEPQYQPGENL
Method: as §1
(§3) The relevant enzyme (3000 ng/mL or 2000 ng/mL respectively, 2.5 μL) is incubated with the test compound (either 4 μg/mL, 0.4 μg/mL, 0.04 μg/mL, or 0.004 μg/mL, 2.5 μL each) for 2 hr at RT. The FRET peptides (8 μM, 2.5 μL), and appropriate ATP solutions (2.5 μL, 800 μM for c-Src, and 60 μM ATP for Syk) are then added to the enzymes/compound mixtures and incubated for 1 hr. Development reagent (protease, 5 μL) is added for 1 hr prior to detection in a fluorescence microplate reader (Varioskan® Flash, ThermoFisher Scientific).
as §2

p38 MAPKα = p38 MAPKα (Homo sapiens (Human), UniProt Q16539); assay: p38 MAPKα enzyme inhibition (Z-LYTE FRET, Method 2); type: biochemical
p38 MAPKα, sequence (Q16539 whole entry): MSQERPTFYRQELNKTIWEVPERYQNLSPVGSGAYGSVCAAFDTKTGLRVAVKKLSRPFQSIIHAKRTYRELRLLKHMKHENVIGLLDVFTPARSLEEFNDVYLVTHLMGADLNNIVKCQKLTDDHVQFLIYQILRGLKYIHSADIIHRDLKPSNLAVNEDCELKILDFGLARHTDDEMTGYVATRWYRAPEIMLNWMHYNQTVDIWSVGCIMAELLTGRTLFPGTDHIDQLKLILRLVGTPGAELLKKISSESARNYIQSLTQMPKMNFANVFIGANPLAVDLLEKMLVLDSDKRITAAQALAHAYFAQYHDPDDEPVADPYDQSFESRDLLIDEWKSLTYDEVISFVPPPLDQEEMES
Method: as §1
The inhibitory activities of test compounds against the p38 MAPKα isoform (MAPK14: Invitrogen), are evaluated indirectly by determining the level of activation/phosphorylation of the down-stream molecule, MAPKAP-K2. The p38 MAPKα protein (80 ng/mL, 2.5 μL) is mixed with the test compound (2.5 μL of either 4 μg/mL, 0.4 μg/mL, 0.04 μg/mL or 0.004 μg/mL) for 2 hr at RT. […] The mixture is incubated for 1 hr at RT. Development reagent (protease, 5 μL) is added for 1 hr prior to detection in a fluorescence microplate reader (Varioskan® Flash, ThermoFisher Scientific).
as §2

PBMCs [2] = assay: LPS-induced TNFα/IL-8 release in PBMC cells; type: cell-based; conditions: Homo sapiens, read-out: IC50 Values for Inhibition of Cytokine Release PBMCs IL-8
Method: Peripheral blood mononuclear cells (PBMCs) from healthy subjects are separated from whole blood using a density gradient (Lymphoprep, Axis-Shield Healthcare). The PBMCs are seeded in 96 well plates and treated with compounds at the desired concentration for 2 hours before addition of 1 ng/mL LPS (Escherichia Coli O111:B4 from Sigma Aldrich) for 24 hours under normal tissue culture conditions (37° C., 5% CO2). The supernatant is harvested for determination of IL-8 and TN Fa concentrations by sandwich ELISA (Duo-set, R&D systems) and read on the fluorescence microplate reader (Varioskan® Flash, ThermoFisher Scientific).

Syk = Syk (Homo sapiens (Human), UniProt P43405); assay: Syk enzyme inhibition (Z-LYTE FRET); type: biochemical
Method: as §1, §3, §2

d-U937 cells = assay: LPS-induced TNFα/IL-8 release in d-U937 cells; type: cell-based; conditions: Homo sapiens
Method: Cells are pre-incubated with final concentrations of test compound for 2 hr and are then stimulated with 0.1 μg/mL of LPS (from E. coli: O111:B4, Sigma) for 4 hr. The supernatant is collected for determination of TNFα and IL-8 concentrations by sandwich ELISA (Duo-set, R&D systems). […] The relative 50% effective concentration (REC50) is determined from the resultant concentration-response curve. The inhibition of IL-8 production is calculated at each concentration of test compound by comparison with vehicle control.

[3] = read-out: IC50 Values for Inhibition of Cytokine Release PBMCs IL-2
[4] = dU937, read-out: IC50 Values for Inhibition of Cytokine Release dU937 cells TNFα
[5] = dU937, read-out: IC50 Values for Inhibition of Cytokine Release dU937 cells IL-8
[6] = read-out: IC50 Values for Inhibition of Cytokine Release PBMCs IFNγ

GSK3α, sequence (P49840 whole entry): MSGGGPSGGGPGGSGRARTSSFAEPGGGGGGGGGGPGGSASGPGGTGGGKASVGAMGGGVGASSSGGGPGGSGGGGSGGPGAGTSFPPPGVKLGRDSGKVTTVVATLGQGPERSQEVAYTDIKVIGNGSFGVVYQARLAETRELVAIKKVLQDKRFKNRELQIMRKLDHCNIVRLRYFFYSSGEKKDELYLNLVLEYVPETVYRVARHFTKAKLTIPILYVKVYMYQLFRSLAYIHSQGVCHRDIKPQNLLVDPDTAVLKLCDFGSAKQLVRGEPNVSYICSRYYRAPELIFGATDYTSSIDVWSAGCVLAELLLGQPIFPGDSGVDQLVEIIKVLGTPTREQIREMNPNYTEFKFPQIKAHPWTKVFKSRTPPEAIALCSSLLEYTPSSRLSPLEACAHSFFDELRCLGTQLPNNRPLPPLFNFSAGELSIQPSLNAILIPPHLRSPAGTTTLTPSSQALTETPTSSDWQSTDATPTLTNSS

Row | SMILES | IC50 (GSK3α) [µM] | IC50 (PBMCs [1]; [3]) [µM] | IC50 (c-Src) [µM] | IC50 (p38 MAPKα) [µM] | IC50 (PBMCs [2]) [µM] | IC50 (Syk) [µM] | IC50 (d-U937 cells; [4]) [µM] | IC50 (d-U937 cells; [5]) [µM] | IC50 (PBMCs [1]; [6]) [µM]
1 | COc1cc(Nc2nccc(Oc3ccc(NC(=O)Nc4cc(C(C)C)nn4-c4ccc(C)cc4)c4ccccc34)n2)cc(OCCN2CCOCC2)c1 [Example 17, 1-(3-Isopropyl-1-(P-tolyl)-1H-pyrazol-5-yl)-3-(4-((2-((3-methoxy-5-(2-morpholinoethoxy)-phenyl)amino)pyrimidin-4-yl)oxy)naphthalen-1-yl)urea] | 2.67 | 0.0203 | > 0.383 | > 0.28 | 0.0011 | > 0.537 | – | – | –
2 | COc1cc(Nc2nccc(Oc3ccc(NC(=O)Nc4cc(C(C)C)nn4-c4ccc(C)cc4)c4ccccc34)n2)cc(OCCOCCOCCO)c1 [Example 20, 1-(4-((2-((3-(2-(2-(2-Hydroxyethoxy)ethoxy)ethoxy)-5-methoxyphenyl)amino)pyrimidin-4-yl)oxy)naphthalen-1-yl)-3-(3-isopropyl-1-(P-tolyl)-1H-pyrazol-5-yl)urea] | – | 0.0808 | 0.008 | 0.026 | 0.0015 | 0.008 | 0.0016 | – | –
3 | COc1cc(Nc2nccc(Oc3ccc(NC(=O)Nc4cc(C(C)C)nn4-c4ccc(C)cc4)c(Cl)c3Cl)n2)cc(OCCN2CCOCC2)c1 [Example 21, 1-(2,3-Dichloro-4-((2-((3-methoxy-5-(2-morpholinoethoxyl)phenyl)amino)pyrimidin-4-yl)-oxy)phenyl)-3-(3-isopropyl-1-(p-tolyl)-1H-pyrazol-5-yl)urea] | – | 0.0107 | 0.061 | 0.342 | 0.0016 | 0.072 | 0.0011 | 0.0016 | 0.0019
4 | COc1cc(Nc2nccc(Oc3ccc(NC(=O)Nc4cc(C(C)C)nn4-c4ccc(C)cc4)c(Cl)c3Cl)n2)cc(S(=O)(=O)C2CC2)c1 [Example 23, 1-(2,3-Dichloro-4-((2-((3-(cyclopropylsulfonyl)-5-methoxyphenyl)amino)pyrimidin-4-yl)-oxy)phenyl)-3-(3-isopropyl-1-(p-tolyl)-1H-pyrazol-5-yl)urea] | 1.4 | – | 0.053 | – | 0.0026 | 0.289 | – | – | –
5 | COCCOCCOCCOCCOc1cc(Nc2nccc(Oc3ccc(NC(=O)Nc4cc(C(C)C)nn4-c4ccc(C)cc4)c4ccccc34)n2)cc(OC)c1 [Example 29, 1-(4-((2-((3-(2,5,8,11-Tetraoxatridecan-13-yloxy)-5-methoxyphenyl)amino)pyrimidin-4-yl)oxy)naphthalen-1-yl)-3-(3-isopropyl-1-(p-tolyl)-1H-pyrazol-5-yl)urea] | > 10 | 0.0741 | 0.006 | 0.03 | 0.0025 | 0.016 | – | – | 0.0066
6 | COCCOCCOCCOCCOCCOc1cc(Nc2nccc(Oc3ccc(NC(=O)Nc4cc(C(C)C)nn4-c4ccc(C)cc4)c4ccccc34)n2)cc(OC)c1 [Example 30, 1-(4-((2-((3-(2,5,8,11,14-Pentaoxahexadecan-16-yloxy)-5-methoxyphenyl)amino)-pyrimidin-4-yl)oxy)naphthalen-1-yl)-3-(3-isopropyl-1-(p-tolyl)-1H-pyrazol-5-yl)urea] | 7.23 | 0.0273 | 0.004 | 0.032 | 0.0021 | 0.012 | – | – | 0.0152
7 | COCCOCCOCCOCCOCCOCCOCCOc1cc(Nc2nccc(Oc3ccc(NC(=O)Nc4cc(C(C)C)nn4-c4ccc(C)cc4)c4ccccc34)n2)cc(OC)c1 [Example 32, 1-(4-((2-((3-(2,5,8,11,14,17,20-Heptaoxadocosan-22-yloxy)-5-methoxyphenyl)amino)-pyrimidin-4-yl)oxy)naphthalen-1-yl)-3-(3-isopropyl-1-(p-tolyl)-1H-pyrazol-5-yl)urea] | 4.69 | – | 0.003 | 0.011 | 0.0014 | 0.007 | – | – | –
8 | COc1cc(Nc2nccc(Oc3ccc(NC(=O)Nc4cc(C(C)(C)C)nn4-c4ccc(C)cc4)c4ccccc34)n2)cc(SCCCN2CCOCC2)c1 [Example 42, 1-(3-(tert-Butyl)-1-(p-tolyl)-1H-pyrazol-5-yl)-3-(4-((2-((3-methoxy-5-((3-morpholinopropyl)-thio)phenyl)amino)pyrimidin-4-yl)oxy)naphthalen-1-yl)urea] | 1.93 | 0.0585 | 0.028 | 0.291 | 0.0036 | 0.051 | – | – | 0.001
9 | COc1cc(Nc2nccc(Oc3ccc(NC(=O)Nc4cc(C(C)(C)C)nn4-c4ccc(C)cc4)c4ccccc34)n2)cc(OCCN2CCOCC2)c1 [Example 45, 1-(3-(tert-Butyl)-1-(P-tolyl)-1H-pyrazol-5-yl)-3-(4-((2-((3-methoxy-5-(2-morpholinoethoxy)-phenyl)amino)pyrimidin-4-yl)oxy)naphthalen-1-yl)urea] | 1.49 | 0.0738 | 0.012 | 0.144 | 0.0032 | 0.015 | – | – | 0.0022
10 | COc1cc(Nc2nccc(Oc3ccc(NC(=O)Nc4cc(C(C)(C)C)nn4-c4ccc(C)cc4)c4ccccc34)n2)cc(OCCOCCOCCN(C)C)c1 [Example 57, 1-(3-(tert-Butyl)-1-(p-tolyl)-1H-pyrazol-5-yl)-3-(4-((2-((3-(2-(2-(2-(dimethylamino)ethoxy)ethoxy)ethoxy)-5-methoxyphenyl)amino)pyrimidin-4-yl)oxy)naphthalen-1-yl)urea] | 1.94 | 0.0146 | 0.007 | – | 0.0009 | 0.008 | – | – | 0.0014
11 | COCCOCCOc1cc(Nc2nccc(Oc3ccc(NC(=O)Nc4cc(C(C)(C)C)nn4-c4ccc(C)cc4)c4ccccc34)n2)cc(OC)c1 [Example 60, 1-(3-(tert-Butyl)-1-(p-tolyl)-1H-pyrazol-5-yl)-3-(4-((2-((3-methoxy-5-(2-(2-methoxyethoxy)ethoxy)phenyl)amino)pyrimidin-4-yl)oxy)naphthalen-1-yl)urea] | > 10 | 0.0726 | 0.017 | – | 0.0022 | 0.03 | – | – | 0.003
12 | COc1ccc(-n2nc(C(C)(C)C)cc2NC(=O)Nc2ccc(Oc3ccnc(Nc4cc(OC)cc(S(=O)(=O)C5CC5)c4)n3)c3ccccc23)cc1 [Example 70, 1-(3-(tert-Butyl)-1-(4-methoxyphenyl)-1H-pyrazol-5-yl)-3-(4-((2-((3-(cyclopropylsulfonyl)-5-methoxyphenyl)amino)pyrimidin-4-yl)oxy)naphthalen-1-yl)urea] | 3.35 | 0.0735 | – | 0.3 | 0.0009 | 0.062 | 0.0011 | 0.0019 | 0.0014

Source: patent US9732063B2, “Kinase inhibitors” (RESPIVERT LIMITED, priority 2012, dated 2017)
